# Where two headings read alike, the source gives them in different places.
# What was measured:
# Type in all cases: biochemical
# BTK-WT = target: T1, BTK-WT (Homo sapiens, UniProt Q06187); assay: Btk in vitro inhibitory activity (one of Method A TR-FRET, Method B electrophoretic mobility shift, Method C radiometric filter binding); settings: read-out: IC50 BTK-WT
# T1 construct: purified from insect cells as a full-length construct containing an N-terminal 6X-His tag; His6 (N); made in house; host or cells: insect cells (baculovirus Sf21 in Method B)
# TXK = target: T2, TXK (Homo sapiens, UniProt P42681); assay: Inhibition of a panel of kinases, in vitro HotSpot kinase assay: TXK; settings: Table 15, C compounds; 1 μM ATP
# T2 sequence (P42681 1-527): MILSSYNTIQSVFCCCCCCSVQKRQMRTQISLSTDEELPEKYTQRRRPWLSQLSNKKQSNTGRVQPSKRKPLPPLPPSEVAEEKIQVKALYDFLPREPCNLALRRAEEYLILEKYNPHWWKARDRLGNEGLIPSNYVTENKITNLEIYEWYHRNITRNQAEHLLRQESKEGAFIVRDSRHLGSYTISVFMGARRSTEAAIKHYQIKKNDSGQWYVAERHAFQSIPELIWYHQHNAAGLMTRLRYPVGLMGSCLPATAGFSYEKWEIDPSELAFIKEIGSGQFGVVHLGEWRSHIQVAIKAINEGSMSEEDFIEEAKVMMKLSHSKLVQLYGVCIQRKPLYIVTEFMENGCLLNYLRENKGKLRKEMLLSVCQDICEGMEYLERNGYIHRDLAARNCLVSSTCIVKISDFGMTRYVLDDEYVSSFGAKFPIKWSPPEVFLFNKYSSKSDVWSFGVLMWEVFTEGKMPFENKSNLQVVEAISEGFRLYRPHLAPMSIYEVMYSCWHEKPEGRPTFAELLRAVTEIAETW
# Protocol: (§1) The degree of inhibition of a panel of kinases is determined using the in vitro HotSpot kinase assay (purified enzymes, ^33P-ATP, an appropriate substrate and 1 μM ATP).
# TEC = target: T3, TEC (Homo sapiens, UniProt P42680); assay: Inhibition of a panel of kinases, in vitro HotSpot kinase assay: TEC
# T3 sequence (P42680 1-631): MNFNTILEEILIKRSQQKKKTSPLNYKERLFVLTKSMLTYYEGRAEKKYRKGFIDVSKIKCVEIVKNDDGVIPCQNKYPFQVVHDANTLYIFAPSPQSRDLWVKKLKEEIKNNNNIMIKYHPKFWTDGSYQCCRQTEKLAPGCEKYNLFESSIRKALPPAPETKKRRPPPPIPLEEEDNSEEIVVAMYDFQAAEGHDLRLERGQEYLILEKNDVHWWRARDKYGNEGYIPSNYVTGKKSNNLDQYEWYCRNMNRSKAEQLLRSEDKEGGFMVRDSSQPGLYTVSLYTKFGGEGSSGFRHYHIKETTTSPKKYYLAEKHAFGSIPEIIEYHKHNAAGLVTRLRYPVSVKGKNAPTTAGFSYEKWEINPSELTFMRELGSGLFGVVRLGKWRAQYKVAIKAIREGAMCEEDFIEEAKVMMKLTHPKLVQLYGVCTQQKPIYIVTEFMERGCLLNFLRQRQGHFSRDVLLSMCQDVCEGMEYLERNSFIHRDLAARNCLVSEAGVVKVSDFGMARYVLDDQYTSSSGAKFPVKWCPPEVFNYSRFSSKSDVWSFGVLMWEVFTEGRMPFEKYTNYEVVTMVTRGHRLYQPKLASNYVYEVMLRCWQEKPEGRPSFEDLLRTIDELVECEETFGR
# Protocol: as §1
# ITK = target: T4, ITK (Homo sapiens, UniProt Q08881); assay: Inhibition of a panel of kinases, in vitro HotSpot kinase assay: ITK
# T4 sequence (Q08881 1-620): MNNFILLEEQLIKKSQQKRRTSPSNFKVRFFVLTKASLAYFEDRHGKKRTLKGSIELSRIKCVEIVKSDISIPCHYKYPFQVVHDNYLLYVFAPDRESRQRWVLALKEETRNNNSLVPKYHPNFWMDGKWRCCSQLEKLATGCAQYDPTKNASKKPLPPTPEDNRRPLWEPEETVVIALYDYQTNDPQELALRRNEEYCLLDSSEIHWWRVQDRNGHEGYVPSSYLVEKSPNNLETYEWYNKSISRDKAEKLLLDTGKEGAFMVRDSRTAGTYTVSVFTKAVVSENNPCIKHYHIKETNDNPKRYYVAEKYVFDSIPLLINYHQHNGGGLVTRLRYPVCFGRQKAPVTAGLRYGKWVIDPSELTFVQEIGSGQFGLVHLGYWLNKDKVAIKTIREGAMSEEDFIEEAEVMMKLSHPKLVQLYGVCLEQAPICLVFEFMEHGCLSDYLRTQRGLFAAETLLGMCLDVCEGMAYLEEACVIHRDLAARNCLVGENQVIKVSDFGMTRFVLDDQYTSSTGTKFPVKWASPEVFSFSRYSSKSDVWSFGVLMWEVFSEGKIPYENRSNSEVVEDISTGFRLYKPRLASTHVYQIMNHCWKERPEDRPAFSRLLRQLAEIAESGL
# Protocol: as §1
# LCK = LCK (Homo sapiens, UniProt P06239); assay: Inhibition of a panel of kinases, in vitro HotSpot kinase assay: LCK; settings: read-out: IC50 LCK
# SRC = SRC (Homo sapiens, UniProt P12931); assay: Inhibition of a panel of kinases, in vitro HotSpot kinase assay: SRC; settings: D-compounds panel data; 1 μM ATP
# Protocol: as §1
# EGFR = EGFR (Homo sapiens, UniProt P00533); assay: Inhibition of a panel of kinases, in vitro HotSpot kinase assay: EGFR
# Protocol: as §1
# [1] = Table 15, C compounds, 1 μM ATP
# [2] = D-compounds panel data, 1 μM ATP
# T1 sequence (Q06187 whole entry): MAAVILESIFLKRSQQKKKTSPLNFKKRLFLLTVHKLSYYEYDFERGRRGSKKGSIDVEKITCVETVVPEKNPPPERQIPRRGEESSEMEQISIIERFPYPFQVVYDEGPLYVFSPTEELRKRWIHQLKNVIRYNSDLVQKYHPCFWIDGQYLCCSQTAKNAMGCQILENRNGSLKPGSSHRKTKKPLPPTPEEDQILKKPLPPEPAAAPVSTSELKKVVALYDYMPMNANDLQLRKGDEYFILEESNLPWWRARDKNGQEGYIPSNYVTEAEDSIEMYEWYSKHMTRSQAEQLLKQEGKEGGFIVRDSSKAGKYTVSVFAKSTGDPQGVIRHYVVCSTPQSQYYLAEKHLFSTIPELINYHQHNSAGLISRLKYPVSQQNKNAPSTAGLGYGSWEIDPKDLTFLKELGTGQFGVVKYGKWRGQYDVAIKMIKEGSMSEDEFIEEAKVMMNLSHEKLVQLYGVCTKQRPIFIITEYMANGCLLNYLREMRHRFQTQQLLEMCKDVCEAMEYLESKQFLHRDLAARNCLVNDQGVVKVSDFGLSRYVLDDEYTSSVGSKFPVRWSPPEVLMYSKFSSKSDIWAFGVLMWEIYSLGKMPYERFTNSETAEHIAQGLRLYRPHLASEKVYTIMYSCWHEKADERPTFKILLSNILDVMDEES
# Sequence of EGFR (P00533 25-1210): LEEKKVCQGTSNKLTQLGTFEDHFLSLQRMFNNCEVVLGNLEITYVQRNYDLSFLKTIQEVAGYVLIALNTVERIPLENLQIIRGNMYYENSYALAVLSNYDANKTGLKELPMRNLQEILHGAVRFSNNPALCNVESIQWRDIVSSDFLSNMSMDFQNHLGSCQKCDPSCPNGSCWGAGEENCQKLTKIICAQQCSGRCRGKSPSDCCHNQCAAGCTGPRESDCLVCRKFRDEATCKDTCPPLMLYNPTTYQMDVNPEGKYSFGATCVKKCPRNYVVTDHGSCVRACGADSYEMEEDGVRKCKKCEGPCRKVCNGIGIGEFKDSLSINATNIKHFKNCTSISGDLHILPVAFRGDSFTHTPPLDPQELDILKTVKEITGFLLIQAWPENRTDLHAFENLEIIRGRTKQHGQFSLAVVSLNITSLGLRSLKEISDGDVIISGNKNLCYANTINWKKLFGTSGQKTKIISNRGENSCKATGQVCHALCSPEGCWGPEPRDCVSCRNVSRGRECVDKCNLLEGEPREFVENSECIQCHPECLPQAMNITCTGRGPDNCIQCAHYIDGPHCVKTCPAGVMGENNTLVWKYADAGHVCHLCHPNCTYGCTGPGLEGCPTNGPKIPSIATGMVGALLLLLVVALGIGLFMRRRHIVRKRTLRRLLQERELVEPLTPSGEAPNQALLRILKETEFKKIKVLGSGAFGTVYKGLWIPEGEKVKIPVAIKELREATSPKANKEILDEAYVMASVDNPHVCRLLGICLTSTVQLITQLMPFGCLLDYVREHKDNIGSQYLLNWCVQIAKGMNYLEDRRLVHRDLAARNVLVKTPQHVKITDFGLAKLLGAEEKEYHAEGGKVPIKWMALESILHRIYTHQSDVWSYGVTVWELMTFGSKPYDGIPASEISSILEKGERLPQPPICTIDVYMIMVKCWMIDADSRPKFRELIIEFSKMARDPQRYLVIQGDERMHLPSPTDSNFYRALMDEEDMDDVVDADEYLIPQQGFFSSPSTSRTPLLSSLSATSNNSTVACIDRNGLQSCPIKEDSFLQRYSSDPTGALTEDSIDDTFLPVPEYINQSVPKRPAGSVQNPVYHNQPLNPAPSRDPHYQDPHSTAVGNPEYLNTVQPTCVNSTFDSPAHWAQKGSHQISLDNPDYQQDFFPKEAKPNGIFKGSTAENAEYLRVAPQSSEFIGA
# Sequence of LCK (P06239 whole entry): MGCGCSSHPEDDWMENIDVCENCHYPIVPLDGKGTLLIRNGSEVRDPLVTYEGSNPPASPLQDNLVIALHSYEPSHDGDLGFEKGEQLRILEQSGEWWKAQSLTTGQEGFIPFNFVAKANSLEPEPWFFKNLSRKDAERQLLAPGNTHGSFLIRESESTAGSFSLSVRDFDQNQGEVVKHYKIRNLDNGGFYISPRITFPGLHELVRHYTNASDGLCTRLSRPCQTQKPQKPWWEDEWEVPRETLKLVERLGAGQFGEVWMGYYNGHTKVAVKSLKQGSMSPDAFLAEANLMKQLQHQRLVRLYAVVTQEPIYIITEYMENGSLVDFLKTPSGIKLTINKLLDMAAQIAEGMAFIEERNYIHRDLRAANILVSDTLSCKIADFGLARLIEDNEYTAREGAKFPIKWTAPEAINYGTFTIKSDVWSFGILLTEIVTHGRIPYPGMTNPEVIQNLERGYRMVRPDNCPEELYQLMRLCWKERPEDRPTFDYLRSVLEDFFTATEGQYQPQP
# Sequence of SRC (P12931 whole entry): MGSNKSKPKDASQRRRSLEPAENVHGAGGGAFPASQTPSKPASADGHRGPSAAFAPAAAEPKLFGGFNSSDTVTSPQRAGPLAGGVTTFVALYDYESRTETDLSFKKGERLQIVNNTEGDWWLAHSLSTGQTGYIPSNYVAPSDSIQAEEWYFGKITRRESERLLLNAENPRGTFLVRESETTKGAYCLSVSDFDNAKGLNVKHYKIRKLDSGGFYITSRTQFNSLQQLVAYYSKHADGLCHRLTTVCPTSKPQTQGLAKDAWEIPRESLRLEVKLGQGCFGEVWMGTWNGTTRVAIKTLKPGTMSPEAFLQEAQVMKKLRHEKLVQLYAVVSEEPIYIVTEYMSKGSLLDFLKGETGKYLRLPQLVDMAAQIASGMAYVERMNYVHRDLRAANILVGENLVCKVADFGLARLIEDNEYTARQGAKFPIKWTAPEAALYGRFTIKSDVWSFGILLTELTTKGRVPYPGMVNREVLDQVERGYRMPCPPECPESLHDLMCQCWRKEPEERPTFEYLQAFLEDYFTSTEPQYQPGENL
"IC50 (BTK-WT; Table 15, C compounds)",IC50 (TXK),IC50 (TEC; [1]),IC50 (ITK; [1]),Structure (SMILES),other results
≤ 0.01 µM,≤ 0.01 µM,≤ 0.01 µM,0.01 to 0.1 µM,"C=CC(=O)N1CCC[C@@H](Nc2nnc(C(N)=O)c(Nc3ccc(-c4ncccn4)cc3)n2)C1 [Example C-52, (R)-3-(1-acryloylpiperidin-3-ylamino)-5-(4-(pyrimidin-2-yl)phenylamino)-1,2,4-triazine-6-carboxamide]",–
≤ 0.01 µM,≤ 0.01 µM,≤ 0.01 µM,≤ 0.01 µM,"C=CC(=O)N1CCC[C@@H](Nc2nnc(C(N)=O)c(Nc3ccc(C(C)(C)C#N)cc3)n2)C1 [Example C-61, (R)-3-(1-acryloylpiperidin-3-ylamino)-5-(4-(2-cyanopropan-2-yl)phenylamino)-1,2,4-triazine-6-carboxamide]",–
≤ 0.01 µM,≤ 0.01 µM,≤ 0.01 µM,0.01 to 0.1 µM,"C=CC(=O)N1CCC[C@@H](Nc2nnc(C(N)=O)c(Nc3ccc(C)cc3)n2)C1 [Example C-54, (R)-3-(1-acryloylpiperidin-3-ylamino)-5-(p-tolylamino)-1,2,4-triazine-6-carboxamide]",–
≤ 0.01 µM,≤ 0.01 µM,≤ 0.01 µM,≤ 0.01 µM,"C=CC(=O)N1CCC[C@@H](Nc2nnc(C(N)=O)c(Nc3ccc(C4CCN(C5CCCC5)CC4)cc3)n2)C1 [Example C-60, (R)-3-(1-acryloylpiperidin-3-ylamino)-5-(4-(1-cyclopentylpiperidin-4-yl)phenylamino)-1,2,4-triazine-6-carboxamide]",–
≤ 0.01 µM,≤ 0.01 µM,≤ 0.01 µM,0.01 to 0.1 µM,"C=CC(=O)N1CCC[C@@H](Nc2nnc(C(N)=O)c(Nc3ccc(-n4nccn4)cc3)n2)C1 [Example C-81, (R)-5-(4-(2H-1,2,3-triazol-2-yl)phenylamino)-3-(1-acryloylpiperidin-3-ylamino)-1,2,4-triazine-6-carboxamide]",–
≤ 0.01 µM,≤ 0.01 µM,≤ 0.01 µM,≤ 0.01 µM,"C=CC(=O)N1CCC[C@@H](Nc2nnc(C(N)=O)c(Nc3ccc(Cn4cncn4)cc3)n2)C1 [Example C-64, (R)-5-(4-((1H-1,2,4-triazol-1-yl)methyl)phenyl-amino)-3-(1-acryloylpiperidin-3-ylamino)-1,2,4-triazine-6-carboxamide]",–
≤ 0.01 µM,≤ 0.01 µM,≤ 0.01 µM,0.01 to 0.1 µM,"C=CC(=O)N1CCC[C@@H](Nc2nnc(C(N)=O)c(Nc3ccc(I)cc3)n2)C1 [Example C-62, (R)-3-(1-acryloylpiperidin-3-ylamino)-5-(4-iodophenylamino)-1,2,4-triazine-6-carboxamide]",–
≤ 0.01 µM,≤ 0.01 µM,≤ 0.01 µM,0.01 to 0.1 µM,"C=CC(=O)N1CCC[C@@H](Nc2nnc(C(N)=O)c(Nc3ccc(-n4cncn4)cc3)n2)C1 [Example C-83, (R)-5-(4-(1H-1,2,4-triazol-1-yl)phenylamino)-3-(1-acryloylpiperidin-3-ylamino)-1,2,4-triazine-6-carboxamide]",–

# Further lines, the compound ahead of its results:
Structure (SMILES),"IC50 (BTK-WT; Table 15, C compounds)",IC50 (TXK),IC50 (TEC; [1]),IC50 (ITK; [1]),other results
"C=CC(=O)N1CCC[C@@H](Nc2nnc(C(N)=O)c(Nc3ccc(CN(C(=O)OCc4ccccc4)[C@@H](C)C(C)(C)C)cc3)n2)C1 [Example C-72, benzyl 4-(3-((R)-1-acryloylpiperidin-3-ylamino)-6-carbamoyl-1,2,4-triazin-5-ylamino)benzyl((S)-3,3-dimethylbutan-2-yl)carbamate]",≤ 0.01 µM,0.01 to 0.1 µM,≤ 0.01 µM,0.01 to 0.1 µM,–
"C=CC(=O)N1CCC[C@@H](Nc2nnc(C(N)=O)c(Nc3ccc4c(cnn4CC)c3)n2)C1 [Example C-80, (R)-3-(1-acryloylpiperidin-3-ylamino)-5-(1-ethyl-1H-indazol-5-ylamino)-1,2,4-triazine-6-carboxamide]",≤ 0.01 µM,≤ 0.01 µM,≤ 0.01 µM,≤ 0.01 µM,–
"C=CC(=O)N1CCC[C@@H](Nc2nnc(C(N)=O)c(Nc3ccc4ncsc4c3)n2)C1 [Example C-63, (R)-3-(1-acryloylpiperidin-3-ylamino)-5-(benzo[d]thiazol-6-ylamino)-1,2,4-triazine-6-carboxamide]",≤ 0.01 µM,≤ 0.01 µM,≤ 0.01 µM,≤ 0.01 µM,–
"C=CC(=O)N1CCC[C@@H](Nc2nnc(C(N)=O)c(Nc3cnc4ccccc4c3)n2)C1 [Example C-70, (R)-3-(1-acryloylpiperidin-3-ylamino)-5-(quinolin-3-ylamino)-1,2,4-triazine-6-carboxamide]",≤ 0.01 µM,≤ 0.01 µM,≤ 0.01 µM,0.01 to 0.1 µM,–
"C=CC(=O)N1CCC[C@@H](Nc2nnc(C(N)=O)c(Nc3cccc(-c4ncco4)c3)n2)C1 [Example C-79, (R)-3-(1-acryloylpiperidin-3-ylamino)-5-(3-(oxazol-2-yl)phenylamino)-1,2,4-triazine-6-carboxamide]",≤ 0.01 µM,≤ 0.01 µM,≤ 0.01 µM,0.01 to 0.1 µM,–
"C[C@@H]1[C@H](NC(=O)c2ccc(C3CC3)cc2)CCCN1c1cnc(C(N)=O)c(Nc2ccc(N3CCCCC3)cc2)n1 [Example D-37, 5-[(2R,3R)-3-(4-cyclopropylbenzamido)-2-methylpiperidin-1-yl]-3-{[4-(piperidin-1-yl)phenyl]amino}pyrazine-2-carboxamide]",–,–,–,–,IC50 (BTK-WT; D-compounds panel data): 0.01 to 0.1 µM; IC50 (TEC; [2]): 0.01 to 0.1 µM; IC50 (LCK; [2]): 0.1 to 1 µM; IC50 (SRC): 1 to 10 µM; IC50 (EGFR; [2]): 0.1 to 1 µM; IC50 (ITK; [2]): 1 to 10 µM
"C=CC(=O)N1CC[C@@H](N(C)c2cnc(C(N)=O)c(Nc3ccc(C4(C)CCN(C5CCCC5)CC4)cc3)n2)C1 [Example C-67, (R)-5-((1-acryloylpyrrolidin-3-yl)(methyl)amino)-3-(4-(1-cyclopentyl-4-methylpiperidin-4-yl)phenylamino)pyrazine-2-carboxamide]",≤ 0.01 µM,> 10 µM,≤ 0.01 µM,≤ 0.01 µM,–
"C=CC(=O)N1CCC[C@@H](Nc2nnc(C(N)=O)c(Nc3ccc(-n4nccn4)cc3)n2)C1 [Example E-67, (R)-5-(4-(2H-1,2,3-triazol-2-yl)phenylamino)-3-(1-acryloylpiperidin-3-ylamino)-1,2,4-triazine-6-carboxamide]",–,–,–,–,"IC50 (BTK-WT; E compounds, Table 17): ≤ 0.01 µM; IC50 (TEC; E compounds, Table 17): ≤ 0.01 µM; IC50 (LCK; E compounds, Table 17): 0.1 to 1 µM; IC50 (EGFR; E compounds, Table 17): 0.01 to 0.1 µM; IC50 (ITK; E compounds, Table 17): 0.01 to 0.1 µM"
"C=CC(=O)N1CCC[C@@H](Nc2nnc(C(N)=O)c(Nc3ccc(C(C)C)c(C)c3)n2)C1 [Example C-53, (R)-3-(1-acryloylpiperidin-3-ylamino)-5-(4-isopropyl-3-methylphenylamino)-1,2,4-triazine-6-carboxamide]",≤ 0.01 µM,≤ 0.01 µM,≤ 0.01 µM,0.01 to 0.1 µM,–
